Results on 29 molecules are retold here after ChEMBL document CHEMBL3813664, “Synthesis and evaluation of biphenyl derivatives as potential downregulators of VEGF protein secretion and telomerase-related gene expressions” (Bioorg Med Chem, 2016).

One data set has as its system HEK293. Put plainly: Cytotoxicity against HEK293 cells assessed as reduction in cell growth after 3 days by MTT assay. Type of data set: cell-based. Conditions: Homo sapiens, HEK293, 72 h.
The test system of data set [1] is HT-29. Put plainly: Cytotoxicity against human HT-29 cells assessed as reduction in cell growth after 3 days by MTT assay. Type of data set: functional, cell-based. Conditions: HT-29, 72 h. In general terms: Formazan colour is commonly taken as a measure of viable cells.
The subject of a further data set is MCF7. Put plainly: Cytotoxicity against human MCF7 cells assessed as reduction in cell growth after 3 days by MTT assay. Conditions: MCF7, 72 h. Type of data set: functional, cell-based.
The nature of data set [2]: Therapeutic index, ratio of IC50 for HEK293 cells to IC50 for human HT-29 cells. Type of data set: cell-based. Conditions: HEK293 cells versus HT-29 cells, read-out: Ratio IC50.
A short description of data set [3]: Therapeutic index, ratio of IC50 for HEK293 cells to IC50 for human MCF7 cells. Type of data set: cell-based. Conditions: HEK293 cells versus MCF7 cells, read-out: Ratio IC50.
Data set [4] has as its system HT-29. As to the kind of experiment: Downregulation of VEGFA-165 secretion in human HT-29 cells assessed as protein secretion levels at 3 ug/ml after 72 hrs by ELISA relative to control. Format: functional.
In data set [5] the test system is HT-29. Put plainly: Downregulation of VEGFA gene expression in human HT-29 cells assessed as gene expression levels at 3 ug/ml after 48 hrs by RT-qPCR analysis relative to control. Format: functional.
The subject of data set [6] is HT-29. Put plainly: Downregulation of TERT gene expression in human HT-29 cells assessed as gene expression levels at 3 ug/ml after 48 hrs by RT-qPCR analysis relative to control. Type of data set: functional.
The subject of data set [7] is HT-29. Put plainly: Downregulation of c-Myc gene expression in human HT-29 cells assessed as gene expression levels at 3 ug/ml after 48 hrs by RT-qPCR analysis relative to control. Type of data set: functional. (In qPCR the cycle at which signal appears reflects the starting amount.)

In brackets after ≈: the same amount, converted by molar mass. Where only a bound is given, the exact number is not on record here.

The IC50 is the concentration needed to halve the response being measured. Take `Nc1ccc(-c2cccc(O)c2)cc1`: the IC50 is 55 µg/mL (≈ 297 µM) in the data set on HEK293, 49.3 µg/mL (≈ 266 µM) in the data set on HT-29 [1] and more than 100 µg/mL in the data set on MCF7. Moreover, the figures for the selectivity ratio in data set [2] and in [3] were 1.1 and less than 0.6, respectively.
Consider `Nc1cccc(-c2ccccc2O)c1`, for which the IC50 with HEK293 came to 47 µg/mL (≈ 254 µM); in the data set with HT-29 [1], 49 µg/mL (≈ 265 µM); in the data set on MCF7 it was 28 µg/mL (≈ 151 µM). Moreover, the selectivity ratio in data set [2] was found to be 1; in [3], 1.7.
In the case of `Nc1ccc(-c2ccccc2)cc1` [BIPHENYL-4-AMINE], the IC50 with HEK293 was more than 100 µg/mL; in the data set on HT-29 [1], more than 100 µg/mL; in the data set on MCF7 it was 1.4 µg/mL (≈ 8.27 µM). Also, in [3], the selectivity ratio is more than 69.
Consider `Oc1cccc(-c2ccccc2O)c1`, for which the IC50 in the data set on HEK293 was more than 100 µg/mL; with HT-29 [1] it was 5.2 µg/mL (≈ 27.9 µM); in the data set with MCF7, more than 100 µg/mL. Besides, in [2], the selectivity ratio is more than 19. Besides, the Activity in the data set on HT-29 [4] is reported as 57%; with HT-29 [5], 10%; with HT-29 [6], 18%; in the data set on HT-29 [7], 87%.
As to `COc1ccc(-c2ccc(N)cc2)cc1OC`, the 50% inhibitory concentration (IC50) in the data set on HEK293 came out at 23 µg/mL (≈ 100 µM); in the data set with HT-29 [1] it was 2 µg/mL (≈ 8.72 µM); with MCF7, 5.5 µg/mL (≈ 24 µM). The selectivity ratio in data set [2] amounted to 12; in data set [3], 4. In addition, the Activity came out at 48% with HT-29 [4], 48% in the data set on HT-29 [5], 100% in the data set on HT-29 [6] and 92% in the data set on HT-29 [7].
Turning to `COc1ccc(-c2cccc(O)c2)c(OC)c1`, the IC50 with HEK293 came out at 28 µg/mL (≈ 122 µM); in the data set on HT-29 [1], 54 µg/mL (≈ 235 µM); with MCF7, 50.2 µg/mL (≈ 218 µM). For the same molecule, the values for the selectivity ratio in data set [2] and in data set [3] were 0.5 and 0.6, respectively.
In the same order, the values of `COc1ccc(-c2cccc(O)c2)cc1` are 14.6 µg/mL (≈ 72.9 µM), 72 µg/mL (≈ 360 µM), 48 µg/mL (≈ 240 µM), 0.2 and 0.3.
In the same order, the values of `COc1ccc(-c2ccccc2)cc1OC` are 26 µg/mL (≈ 121 µM), 41 µg/mL (≈ 191 µM), 45 µg/mL (≈ 210 µM), 0.6 and 0.6.
In the same order, the values of `Nc1cccc(-c2cccc(O)c2)c1` are 50.1 µg/mL (≈ 270 µM), 54 µg/mL (≈ 292 µM), 99 µg/mL (≈ 534 µM), 0.9 and 0.5.
On to `COc1ccc(-c2ccccc2N)c(OC)c1`, for which the IC50 was more than 100 µg/mL in the data set with HEK293, 56 µg/mL (≈ 244 µM) in the data set with HT-29 [1] and 56 µg/mL (≈ 244 µM) in the data set on MCF7. Further, the selectivity ratio in data set [2] and in [3] was more than 2 in each case.
With `Nc1ccccc1-c1ccc(O)cc1`, the 50% inhibitory concentration (IC50) in the data set with HEK293 was 50 µg/mL (≈ 270 µM); in the data set with HT-29 [1], 51 µg/mL (≈ 275 µM); with MCF7, 44.3 µg/mL (≈ 239 µM). Further, the selectivity ratio amounted to 1 in [2] and 1.1 in data set [3].
Consider `COc1cccc(-c2ccccc2O)c1`, for which the IC50 in the data set on HEK293 worked out at 39 µg/mL (≈ 195 µM); with HT-29 [1], 35 µg/mL (≈ 175 µM); in the data set on MCF7, 43 µg/mL (≈ 215 µM). For the same molecule, the results for the selectivity ratio in data set [2] and in data set [3] were 1.1 and 0.9, respectively.
As to `Oc1ccc(-c2ccccc2O)cc1`, the IC50 with HEK293 is 54 µg/mL (≈ 290 µM); with HT-29 [1], 1.4 µg/mL (≈ 7.52 µM); in the data set on MCF7, more than 100 µg/mL. In [2], the selectivity ratio turned out to be 38. For the same molecule, the Activity in the data set on HT-29 [4] worked out at 62%; with HT-29 [5], 16%; with HT-29 [6] it was 11%; with HT-29 [7] it was 11%.
On to `COc1ccc(-c2cccc(O)c2)cc1OC`, for which the results for the IC50 in the data set on HEK293, with HT-29 [1] and with MCF7 were 23.1 µg/mL (≈ 100 µM), 29 µg/mL (≈ 126 µM) and 48 µg/mL (≈ 208 µM), respectively. Moreover, the selectivity ratio in [2] amounted to 0.8; in [3] it was 0.5.
As for `COc1ccccc1-c1ccccc1`, the 50% inhibitory concentration (IC50) in the data set on HEK293 was found to be 52 µg/mL (≈ 282 µM); in the data set on HT-29 [1], 51 µg/mL (≈ 277 µM); in the data set on MCF7, 1.6 µg/mL (≈ 8.68 µM). Also, the selectivity ratio in [2] was 1; in data set [3] it was 33.
For the molecule `Nc1ccccc1-c1ccccc1O`, the results for the IC50 with HEK293, in the data set on HT-29 [1] and with MCF7 were 54.1 µg/mL (≈ 292 µM), 44 µg/mL (≈ 238 µM) and 56 µg/mL (≈ 302 µM), respectively. For the same molecule, the selectivity ratio in data set [2] was 1.2; in [3], 1.
On the same counts, the results for `Oc1ccccc1-c1ccccc1` [2-PHENYLPHENOL] are 31.4 µg/mL (≈ 184 µM), 55 µg/mL (≈ 323 µM), 51 µg/mL (≈ 300 µM), 0.6 and 0.6.
On the same counts, the results for `Nc1ccc(-c2ccc(O)cc2)cc1` are 62 µg/mL (≈ 335 µM), 56 µg/mL (≈ 302 µM), 49.9 µg/mL (≈ 269 µM), 1.1 and 1.2.
On the same counts, the results for `COc1ccc(-c2ccc(O)cc2)cc1` are 2 µg/mL (≈ 9.99 µM), more than 100 µg/mL, 53 µg/mL (≈ 265 µM), less than 0.1 and less than 0.1.
Regarding `Nc1cccc(-c2ccccc2)c1`, the half-inhibitory concentration (IC50) was determined as 54 µg/mL (≈ 319 µM) in the data set with HEK293, 42 µg/mL (≈ 248 µM) in the data set with HT-29 [1] and 60 µg/mL (≈ 355 µM) in the data set with MCF7. The figures for the selectivity ratio in data set [2] and in [3] were 1.3 and 0.9, respectively.
On the same counts, the results for `COc1ccc(-c2cccc(N)c2)c(OC)c1` are 29.2 µg/mL (≈ 127 µM), 49 µg/mL (≈ 214 µM), more than 100 µg/mL, 0.6 and less than 0.3.
In the same order, the values of `Nc1ccc(-c2ccccc2O)cc1` are 31 µg/mL (≈ 167 µM), 27.3 µg/mL (≈ 147 µM), 52 µg/mL (≈ 281 µM), 1.2 and 0.6.
On the same counts, the results for `COc1ccc(-c2ccccc2O)cc1OC` are 23 µg/mL (≈ 99.9 µM), more than 100 µg/mL, 55 µg/mL (≈ 239 µM), less than 0.2 and 0.4.
`COc1ccccc1-c1ccc(O)cc1`: the half-inhibitory concentration (IC50) in the data set with HEK293 came out at 44 µg/mL (≈ 220 µM); with HT-29 [1], 49 µg/mL (≈ 245 µM); in the data set on MCF7 it was 55 µg/mL (≈ 275 µM). For the same molecule, the selectivity ratio in data set [2] stood at 0.9; in data set [3], 0.8.
`Oc1cccc(-c2ccccc2)c1`: the 50% inhibitory concentration (IC50) was 25 µg/mL (≈ 147 µM) with HEK293, 28 µg/mL (≈ 165 µM) in the data set with HT-29 [1] and 27.4 µg/mL (≈ 161 µM) in the data set with MCF7. The selectivity ratio in data set [2] and in data set [3] was 0.9 throughout.
Consider `COc1ccc(-c2ccccc2)cc1`, for which the half-inhibitory concentration (IC50) with HEK293 was 17 µg/mL (≈ 92.3 µM); in the data set with HT-29 [1], 45 µg/mL (≈ 244 µM); with MCF7, more than 100 µg/mL. For the same molecule, the selectivity ratio in [2] is 0.4; in data set [3] it was less than 0.2.
`COc1ccc(-c2ccccc2)c(OC)c1`: the half-maximal inhibitory concentration (IC50) is 27 µg/mL (≈ 126 µM) in the data set on HEK293, 55.2 µg/mL (≈ 258 µM) in the data set with HT-29 [1] and more than 100 µg/mL in the data set with MCF7. In addition, the values for the selectivity ratio in data set [2] and in [3] were 0.5 and less than 0.3, respectively.
On the same counts, the results for `Oc1ccc(-c2ccc(O)cc2)cc1` are 5.1 µg/mL (≈ 27.4 µM), 13.9 µg/mL (≈ 74.6 µM), 17.8 µg/mL (≈ 95.6 µM), 0.4 and 0.3.
As for `COc1ccc(-c2ccccc2O)cc1`, the IC50 in the data set on HEK293 worked out at 44 µg/mL (≈ 220 µM); in the data set with HT-29 [1] it was 47 µg/mL (≈ 235 µM); in the data set with MCF7, 42 µg/mL (≈ 210 µM). The selectivity ratio is 0.9 in data set [2] and 1 in data set [3].
